What was measured:
[1] = Sensory evaluation of cooling agent-containing fondants (location, intensity, onset speed of cooling sensation); type: in vivo; settings: for Long-lasting mouth cooling / Long-lasting throat cooling / Predominant mouth cooling / Predominant throat cooling: in fondant at 0.03, 0.06 and 0.09 weight percent, approx. 0.5 gram dissolved in the mouth, six evaluators
Description: The cooling agents N-ethyl-2,2-diisopropylbutanamide and N,2,3-trimethyl-2-isopropylbutanamide were evaluated in fondant at concentrations of 0.03, 0.06, and 0.09 weight percent. The fondant base consisted of 85 weight percent 6X fondant sugar and 15 weight percent deionized water.
Sensory evaluations of the cooling agent-containing fondants were conducted by six evaluators, who observed the location, intensity, and onset speed of cooling sensation as they tasted approximately 0.5 gram of fondant by allowing it to dissolve in the mouth.

[2] = Inventors' observations on bitterness and throat versus mouth cooling; settings: in vivo
Excerpt: The present inventors have observed that N-ethyl-2,2-diisopropylbutanamide is a particularly effective for throat soothing. […] The structures of N-ethyl-2,2-diisopropylbutanamide and N,2,3-trimethyl-2-isopropylbutanamide, which differ only by two methylene (—CH2—) groups, are shown below.

[3] = menthol-containing lozenge; cited from earlier work

Structure (SMILES)	Long-lasting mouth cooling [1]	Long-lasting throat cooling [1]	Predominant mouth cooling [1]	Predominant throat cooling [1]	Throat cooling relative to N,2,3-trimethyl-2-isopropylbutanamide ([1]; when used in a candy system)	Location of cooling effect (throat versus mouth) [2]	Location of physiological cooling effect (throat versus mouth) [3]
CCNC(=O)C(CC)(C(C)C)C(C)C [Example 1, N-ethyl-2,2-diisopropylbutanamide]	No	Yes	No	Yes	superior and unexpected throat cooling	selectivity for throat cooling over mouth cooling	
CNC(=O)C(C)(C(C)C)C(C)C [Example 2, N,2,3-trimethyl-2-isopropylbutanamide]	No	No	Yes	No		primarily in the mouth rather than the throat	
CC1CCC(C(C)C)C(O)C1 (stereo not drawn) [menthol]							felt primarily in the mouth rather than the throat
